Experimental data: patent US20120237566A1, “INHIBITING STOMACH-ACID RELEASE, REDUCING INFLAMMATION AND PREVENTING AND TREATING CANCER: COMPOSITIONS AND METHODS OF USE” (Venture Isles, LLC, priority 2011, published 2012)
“Also recorded” adds a separate entry of the source. Where two headings read alike, the source gives them in different places.

Key:
lipoxygenase = conditions: cited from earlier work
[1] = system: AP-1 mediated transcription; conditions: in vitro; cited from earlier work
[2] = system: inducible nitric oxide synthase (iNOS); conditions: activated macrophages; cited from earlier work
[3] = system: chambered bull frog gastric mucosa; assay: acid secretion by chambered bull frog gastric mucosa in vitro; type: cell-based
Text: The method further comprises Step 2 that includes testing to determine if a candidate molecule inhibits the H, K-ATPase activity (inhibits the pump turnover), then test in an appropriate animal model(s) for the antisecretary activity and select the best candidates for clinical trial, as in Step 6.
(§1) Heavy-metal ions generally comprise Ba, Ca, and Zn and show synergistic inhibition when used in combination with thiocyanate and isothiocyanate. Zinc (Zn) inhibits acid secretion by a mechanism quite different than Barium and Calcium.
However, SCN and ZN include different modes of operation.

gastric H, K-ATPase [4] = assay: H, K-ATPase activity of isolated gastric microsomal vesicles; type: biochemical
Text: as §1

[5] = system: gastric microsomal K-pNPPase; assay: K-pNPPase activity of gastric microsomes; type: biochemical
[6] = system: chambered bull frog gastric mucosa; conditions: cited from earlier work
gastric H, K-ATPase [7] = conditions: cited from earlier work
[8] = target: highly purified H, K-ATPase (Homo sapiens, UniProt P20648); conditions: cited from earlier work
highly purified H, K-ATPase, sequence (P20648 whole entry): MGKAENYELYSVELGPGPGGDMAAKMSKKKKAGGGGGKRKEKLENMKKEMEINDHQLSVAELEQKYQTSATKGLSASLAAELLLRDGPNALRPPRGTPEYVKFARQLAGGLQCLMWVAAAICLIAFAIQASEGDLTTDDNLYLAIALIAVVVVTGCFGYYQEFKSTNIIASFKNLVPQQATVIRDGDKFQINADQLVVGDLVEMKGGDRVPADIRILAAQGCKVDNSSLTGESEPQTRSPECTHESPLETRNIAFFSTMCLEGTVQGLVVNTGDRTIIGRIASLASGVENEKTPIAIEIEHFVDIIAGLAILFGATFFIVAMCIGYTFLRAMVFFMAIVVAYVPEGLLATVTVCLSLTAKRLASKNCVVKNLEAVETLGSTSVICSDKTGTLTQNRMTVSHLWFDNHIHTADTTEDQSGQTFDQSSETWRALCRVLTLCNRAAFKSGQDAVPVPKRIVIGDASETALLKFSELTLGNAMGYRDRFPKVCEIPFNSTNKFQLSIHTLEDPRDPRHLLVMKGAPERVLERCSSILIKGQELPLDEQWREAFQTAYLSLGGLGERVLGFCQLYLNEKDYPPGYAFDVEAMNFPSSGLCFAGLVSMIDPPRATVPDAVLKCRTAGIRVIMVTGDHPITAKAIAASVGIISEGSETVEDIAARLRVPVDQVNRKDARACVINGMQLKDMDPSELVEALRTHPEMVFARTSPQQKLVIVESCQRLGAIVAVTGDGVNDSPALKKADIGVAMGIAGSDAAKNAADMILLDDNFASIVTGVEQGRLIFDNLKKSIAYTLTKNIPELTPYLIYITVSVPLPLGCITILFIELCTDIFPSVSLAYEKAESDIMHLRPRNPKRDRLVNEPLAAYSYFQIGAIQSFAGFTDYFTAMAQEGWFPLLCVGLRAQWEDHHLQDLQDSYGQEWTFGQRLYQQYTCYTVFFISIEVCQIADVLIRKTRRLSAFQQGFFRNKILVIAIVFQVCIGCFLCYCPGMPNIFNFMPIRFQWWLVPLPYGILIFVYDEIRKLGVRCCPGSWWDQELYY
highly purified H, K-ATPase, sequence (P51164 whole entry partner): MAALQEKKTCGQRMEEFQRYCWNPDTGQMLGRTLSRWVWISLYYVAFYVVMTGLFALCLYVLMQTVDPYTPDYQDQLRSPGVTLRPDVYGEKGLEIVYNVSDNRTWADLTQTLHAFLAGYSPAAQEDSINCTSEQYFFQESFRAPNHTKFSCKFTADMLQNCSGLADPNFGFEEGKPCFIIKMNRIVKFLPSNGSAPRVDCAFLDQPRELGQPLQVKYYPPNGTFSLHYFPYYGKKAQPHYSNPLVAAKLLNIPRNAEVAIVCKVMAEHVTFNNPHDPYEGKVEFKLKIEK

mitosis = conditions: cited from earlier work
high-affinity K site = high-affinity K site (Homo sapiens, UniProt P20648); conditions: cited from earlier work
high-affinity K site, sequence (P20648 whole entry): as the sequence (P20648 whole entry) above
high-affinity K site, sequence (P51164 whole entry partner): as the sequence (P51164 whole entry partner) above

Na—K-ATPase = conditions: cited from earlier work
H, K-ATPase = H, K-ATPase (Homo sapiens, UniProt P20648); conditions: cited from earlier work
H, K-ATPase, sequence (P20648 whole entry): as the sequence (P20648 whole entry) above
H, K-ATPase, sequence (P51164 whole entry partner): as the sequence (P51164 whole entry partner) above

neutrophil elastase = target: T1, neutrophil elastase (Homo sapiens, UniProt P08246); conditions: cited from earlier work
T1 sequence (P08246 30-267): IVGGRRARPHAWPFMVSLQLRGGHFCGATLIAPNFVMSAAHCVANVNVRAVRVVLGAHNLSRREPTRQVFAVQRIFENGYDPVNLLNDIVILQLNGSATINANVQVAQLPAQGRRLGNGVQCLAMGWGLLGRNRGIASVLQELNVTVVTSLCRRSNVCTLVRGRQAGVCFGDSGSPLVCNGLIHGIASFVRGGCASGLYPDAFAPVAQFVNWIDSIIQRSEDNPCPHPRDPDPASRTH

activated neutrophils = conditions: micromolar EGCG; cited from earlier work
neutrophil chemotaxis = conditions: in vitro; cited from earlier work
[9] = system: neutrophil-mediated angiogenesis; conditions: oral; in vivo; cited from earlier work

Compound: COc1cc(C=CC(=O)CC(=O)C=Cc2ccc(O)c(OC)c2)ccc1O [curcumin, 1,7-bis(4-hydroxy-3-methoxyphenyl)-1,6-heptadiene-3,5-dione]
- lipoxygenase inhibition (lipoxygenase): inhibits
- AP-1 mediated transcription related to cytokine regulation [1]: inhibits
- inducible nitric oxide synthase (iNOS) [2]: suppresses

Compound: [Zn+2] [Zn, Zinc]
- inhibition of gastric-acid secretion [3]: potent inhibitors
- reversal of inhibition of acid secretion by beta-mercaptoehanol (βME) in the secretary solution [3]: could be reversed
- reversal of inhibition of gastric acid secretion by raising K-salt in the bathing medium [3]: totally ineffective
- restoration of acid secretion after Zn inhibition ([3]; 1 mM beta-mercapto-ehanol (βME)): promptly restored
- acid secretion ([3]; at a concentration of 60 added to the secretary solution, within 15 min): reduces the acid secretion to near zero
- activity of the isolated H, K-ATPase (gastric H, K-ATPase [4]): strongly inhibited
- H, K-ATPase activity (gastric H, K-ATPase [4]; 2 μM): abolished
- H, K-ATPase activity (gastric H, K-ATPase [4]; 2 μM, listed as Zinc): abolishes
- sensitivity of H, K-ATPase activity relative to pNPPase activity (gastric H, K-ATPase [4]; inhibition by Zn): ten times more sensitive
- activity of the isolated pNPPase [5]: strongly inhibited
- K-pNPPase activity ([5]; 20 μM): abolishes

Compound: N#C[S-].[Na+] [thiocyanate, Sodium thiocyanate]
- inhibition of gastric-acid secretion [3]: potent inhibitors
- reversal of inhibition of gastric acid secretion by raising K-salt in the bathing medium [3]: can be reversed
- H, K-ATPase activity (gastric H, K-ATPase [4]; 10 mM): totally ineffective
- reversal of K-pNPPase inhibition by high K [5]: reversed by high K
- K-pNPPase activity ([5]; 10 mM): abolished
- gastric H transport [6]: potent inhibitor
- H, K-ATPase mediated hydrolysis of ATP (ATPase activity) (gastric H, K-ATPase [7]): does not inhibit
- binding to purified H, K-ATPase [8]: specific binding
- displacement of bound SCN by K [8]: could be displaced by K
- binding to purified H, K-ATPase ([8]; listed as SCN): binding to a specific site

Compound: N#CSc1ccc(Cl)cc1Cl [DCPT, 2,4-dichlorophenyl thiocyanate]
- anti-proliferative / antimitotic activity (mitosis): anti-proliferative property; also recorded: antimitotic

Compound: [Ba+2] [Barium]
- K-pNPPase activity, antagonism with K [5]: parallel Ba/K antagonism
- reversal of inhibition of acid secretion by higher concentration of K [6]: competitively reverses
- acid secretion ([6]; higher concentration (above 1 mM)): blocks the acid secretion
- acid secretion ([6]; less than 1 mM concentration): slight stimulation

Compound: Cc1nc2c(OCc3ccccc3)cccn2c1CC#N [SCH 28080]
- interaction with the high-affinity K site (high-affinity K site): interacts competitively

Compound: 2-[3,4]-dichlorophenylamino quinolizium bromide [nolinium bromide]
- interaction with the high-affinity K site (high-affinity K site): interacts competitively

Compound: Clc1ccccc1C(c1ccccc1)(c1ccccc1)n1ccnc1 [CLT, clotrimazole]
- inhibition of Na—K-ATPase (Na—K-ATPase): potent inhibitors
- inhibition of H, K-ATPase (H, K-ATPase): potent inhibitors

Compound: [Ca+2] [Calcium]
- response of K-pNPPase inhibition to higher K [5]: nonresponsive to higher K
- K-pNPPase activity ([5]; concentrations comparable to Ba): strong inhibition

Compound: O=C(O[C@@H]1Cc2c(O)cc(O)cc2O[C@@H]1c1cc(O)c(O)c(O)c1)c1cc(O)c(O)c(O)c1 [EGCG, (−)epigallocatechin-3-gallate]
- neutrophil elastase inhibition (neutrophil elastase): strongly inhibits
- apoptosis of activated neutrophils (activated neutrophils): inhibits
- reactive oxygen species activity (activated neutrophils): represses
- chemokine-induced neutrophil chemotaxis (neutrophil chemotaxis): dramatically inhibits
- neutrophil-mediated angiogenesis [9]: block
